From ChEMBL document CHEMBL1126544, “Synthesis and biological evaluation of MC 1357, a new 20-epi-23-oxa-1,25-dihydroxy-vitamin D3 analogue with potent non-classical effects” (Bioorg Med Chem Lett, 1993)

Tests used:
Rattus norvegicus = test: Compound was evaluated for calciuric effect (urinary calcium excretion in rats) at a dose of 0.5 ug/kg/day was administered orally for 7 days: Calcium excretion in control rats receiving vehicle alone of 20 umol/day.; format: functional, Urine
U-937 [1] = test: Concentration to induce cell differentiation in U 937 cells; format: functional, cell-based; settings: Homo sapiens
T-cell = test: Concentration to inhibit T-cell activation in Murine MLR; format: functional, cell-based; settings: Mus musculus
U-937 [2] = test: Concentration to inhibit cell proliferation in U 937 cells; format: functional, cell-based; settings: Homo sapiens

| SMILES | Ca2+ excretion (Rattus norvegicus) [µmol/day] | Concentration (U-937 [1]) [nM] | IC50 (T-cell) [nM] | IC50 (U-937 [2]) [nM] |
| --- | --- | --- | --- | --- |
| C=C1/C(=C\C=C2/CCC[C@]3(C)[C@@H]([C@H](C)CCCC(C)(C)O)CC[C@@H]23)C[C@@H](O)C[C@@H]1O [CALCITRIOL] | 83 | 2 | 0.05 |  |
| C=C1/C(=C\C=C2/CCC[C@]3(C)[C@@H]([C@@H](C)COCCCC(C)(C)O)CC[C@@H]23)C[C@@H](O)C[C@@H]1O | 49 | 0.001 | 0.0006 | 0.01 |
